Entries after “also recorded” stand apart in the source; their conditions may differ.
Assays:
Assay type in all cases: in vivo, mouse
[1] = test system: TNF-α, RARβ2, LRAT mRNA; test: Semi-quantitative PCR of kidney, HF-fed mice; conditions: HF diet mice 4 months
Excerpt: (§1) Mice, diet, and drug treatment. WT male C57/BL6 male mice were maintained on either a standard laboratory chow-fed diet (CFD) with 13% kcal fat, (diet #5053, Lab Diet, Inc, St. Louis, Mo.) or a high fat, western style diet (HFD) with 60% kcals from fat, (diet #58126, Lab Diet, Inc., St. Louis, Mo.) for 4 months. One month after the start of the high fat diet treatment, the high fat diet group was further split into 2 groups for 3 months: i) high fat diet and the drinking water containing 1% DMSO; ii) high fat diet and the drinking water containing 1.5 mg/100 ml AC261066, a specific RARβ agonist. Then mice were sacrificed by cervical dislocation. Blood and various tissue samples were harvested.
Semi-Quantitative PCR. Total RNA was extracted from mouse tissues using TRIzol reagent (Life technologies) and (1 μg) was used to synthesize cDNA. cDNA synthesis was performed at 42° C. for 1 h in a final volume of 20 μl using qScript (Quanta, MD). Semi-quantitative PCR were performed Taq DNA polymerase (Invitrogen, CA). Three step PCR was run as follows: 94° C. for 30 s, 58-64° C. for 45 s for primer annealing and 72° C. for 1 min for primer extension. The number of cycles for each primer pair for amplification in the linear range was determined experimentally. PCR products were resolved on 2% agarose gels and visualized by staining with ehtidium bromide. Primers for gene expression used were as follows: […]

[2] = test system: srebp1-c, fas, dgat1, fgf21, ppar-γ, sirt1, ppar-α, srebp-2, hmgcr, pepck mRNA; test: Q-RT-PCR of hepatic lipogenic, cholesterol and gluconeogenic genes, HFD-fed mice (Example 15)
Description: WT male C57/BL6 male mice were maintained on either a standard laboratory chow-fed diet (Con) with 13% kcal fat, (diet #5053, Lab Diet, Inc, St. Louis, Mo.) or a high fat, western style diet (HFD) with 45% kcals from fat, (diet #58126, Lab Diet, Inc., St. Louis, Mo.) for 4 months. One month after the start of the HFD treatment, the HFD group was further split into 3 groups for 3 months: i) HFD and the drinking water containing 1% DMSO; ii) high fat diet (HFD) and drinking water containing 1.5 mg/100 ml AC261066, a specific RARβ agonist in 1% DMSO or iii) HFD and drinking water containing 1.5 mg/100 ml CD1530, a specific RARγ agonist in 1% DMSO. Then mice were sacrificed by cervical dislocation. Blood and various tissue samples were harvested.
Total RNA was extracted from mouse tissues using TRIzol reagent (Life technologies) and (1 μg) was used to synthesize cDNA. cDNA synthesis was performed at 42° C. for 1 h in a final volume of 20 μl using qScript (Quanta, MD). Q-RTPCR was performed as previously described (15). Primers for gene expression used were as follows: […]

[3] = test system: hepatic stellate cells (HSCs); test: Hepatic stellate cell activation: α-SMA immunofluorescence of liver, HF-fed mice; conditions: HF diet mice 4 months, vs HF-vehicle
Excerpt: as §1
(§2) Combined oil red O and Immunofluorescence. Staining. Fresh mouse liver samples were embedded in optimal cutting temperature (OCT) medium and immediately frozen to −70 centigrade. Cryosections were then fixed in 4% formaldehyde for 1 hr at room temp. Slides were then rinsed three times in deionized water (dH2O) for 30 s, followed by treatment with 0.5% Triton X-100 in PBS for 5 min. Sections were then washed three times with PBS for 5 min. Samples were with incubated 2% bovine serum albumin (BSA) for 30 min at room temperature to block for unspecific antibody binding. Following blocking, sections were washed three times in PBS and incubated with mouse monoclonal antibody against α-SMA (1:500) (Dako, Inc) for 24 h at 4° C. After 24 h sections were washed three times in PB and incubated with Alexa-Flour-488 anti-mouse secondary anti-body (1:500) (Invitrogen, Inc) for 30 min at room temperature. Sections were then washed three times in PBS and incubated with working strength oil-red O solution for 30 minutes at room temperature. Sections were then rinsed for 30 minutes under running tap water and cover-slipped with Vectashield hard mount plus DAPI (Vector Labs, Inc).

[4] = test system: HF-fed C57/BL6 mice; test: Hepatic steatosis: H and E and oil red O staining of liver, HF-fed mice; conditions: HF diet mice 4 months; vs HF-vehicle
Excerpt: as §1
Hematoxylin and Eosin Staining. At sacrifice, fresh mouse liver samples were fixed in 4% formaldehyde solution for 24 hr and embedded in paraffin blocks. Liver paraffin sections were cut 5 microns thick and mounted on glass slides and stained with hematoxylin and eosin (H and E) using standard protocols.
as §2

[5] = HPLC analysis of serum and liver retinoids, HF-fed mice; conditions: for liver retinyl palmitate and retinol compared to controls: HF diet mice vs control diet
Excerpt: as §1
(§3) Analysis of serum and liver retinoids. The frozen liver tissue samples (˜100 mg) were homogenized in 500 μl cold phosphate-buffered saline (PBS). In addition, 100 μl serum was diluted in cold PBS to total volume of 500 μl. Retinyl acetate was added to each sample before the retinoid extraction for the calculation of extraction efficiency. The retinoids were extracted into 350 μl of organic solution (acetonitrile/butanol, 50:50, v/v) in the dark. The high performance liquid chromatography (HPLC) was performed using a Waters Millennium system (Waters). Each sample (100 μl of the 350 μl) was loaded onto an analytical 5-μm reverse phase C18 column (Vydac, Hesperia, Calif.) and eluted at a flow rate of 1.5 ml/min. Two mobile phase gradient systems were used. Retinoids were identified by HPLC based on two criteria: an exact match of the retention times of unknown peaks with those of authentic retinoid standards and identical UV light spectra (220-400 nm) of unknowns against spectra from authentic retinoid standards during HPLC by the use of a photodiode array detector. The amounts of retinoids were calculated from the areas under the peaks detected at the wave-length of 325 nm. The levels of retinol and retinyl esters were normalized to the tissue weight.
as §3, with “Millenium” for “Millennium”

SMILES	kidney LRAT mRNA level [1]	kidney RARβ2 mRNA level [1]	kidney TNF-α mRNA level [1]	hepatic gene expression of pepck [2]	hepatic mRNA levels of lipogenic proteins srebp1-c, fas, dgat1, fgf21, ppar-γ [2]	hepatic mRNA levels of sirt1 and ppar-α [2]	hepatic mRNA levels of srebp-2 and hmgcr [2]	activation of hepatic stellate cells (α-SMA positive staining in liver) [3]	activation of hepatic stellate cells (α-SMA positive staining in liver) ([3]; listed as AC261011)	hepatic lipid accumulation (oil red O) [4]	hepatic steatosis / hepatocyte lipid accumulation (H and E) [4]	retinyl palmitate in liver, higher than HF-vehicle treated mice ([5]; HF diet mice)	vitamin A deficiency (VA depletion) in liver ([5]; HF diet mice)	liver retinyl palmitate and retinol compared to controls [5]	retinyl palmitate in liver, lower than HF-vehicle treated mice ([5]; HF diet mice)
CCCCOCCOc1nc(-c2ccc(C(=O)O)c(F)c2)sc1C [AC261066]	restores	restores; also recorded: did not have decreased	reduces	not affected	greatly reduces; also recorded: significantly reduced	prevented a large decrease	significantly reduced	diminished; also recorded: prevent; also recorded: decreased intensity and regions of α-SMA positive staining	decreased	marked diminished	diminished; also recorded: prevent; also recorded: marked decreased	55%	partially reverses	significantly lowered	–
O=C(O)c1ccc(-c2ccc3cc(O)c(C45CC6CC(CC(C6)C4)C5)cc3c2)cc1 [CD1530]	–	–	–	not affected	–	–	not observed	no evidence decreased	–	not observed; also recorded: no evidence decreased	no decrease	–	–	significantly lowered	~48%
